This note sets out measurements from PubChem BioAssay AID256 (DTP/NCI, 2004).

In the experiment the test system is CD2F1 mice, L1210 leukemia ip, survival T/C. Put plainly: NCI In Vivo Anticancer Drug Screen. Data for tumor model L1210 Leukemia (intraperitoneal) in CD2F1 (CDF1) mice. To be noted: higher = longer survival. In a few lines:
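Tumor-bearing mice (transplanted tumor) were split into treated and vehicle control groups, and the measured endpoint of each treated group was divided by that of its vehicle controls.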

[1] abbreviates: endpoint: mean survival time, dose: 50.0 mg/kg/injection, schedule: Q01DX009 (ip), vehicle: Klucel (hydroxypropylcellulose) (HPC).
The mark [2] stands for this setting: endpoint: mean survival time, dose: 200.0 mg/kg/injection, schedule: Q01DX009 (ip), vehicle: Klucel (hydroxypropylcellulose) (HPC).
Setting [3] is: endpoint: mean survival time, dose: 100.0 mg/kg/injection, schedule: Q04DX003 (ip), vehicle: saline with Tween-80.
Setting [4] is: endpoint: mean survival time, dose: 200.0 mg/kg/injection, schedule: Q04DX003 (ip), vehicle: saline with Tween-80.
Where [5] appears, read: endpoint: mean survival time, dose: 400.0 mg/kg/injection, schedule: Q04DX003 (ip), vehicle: saline with Tween-80.
Where [6] appears, read: endpoint: mean survival time, dose: 100.0 mg/kg/injection, schedule: Q01DX001 (ip), vehicle: saline with Tween-80.
[7] abbreviates: endpoint: mean survival time, dose: 200.0 mg/kg/injection, schedule: Q01DX001 (ip), vehicle: saline with Tween-80.
Where [8] appears, read: endpoint: mean survival time, dose: 400.0 mg/kg/injection, schedule: Q01DX001 (ip), vehicle: saline with Tween-80.

Values joined by “and” are separate entries in the source; they are usually repeats but may differ in a detail not shown here. Identical values can stand only once. Inconclusive results and toxic doses are left out.

In the case of `CCCN(CCC)S(=O)(=O)c1ccc(NC(=O)OC2CC(C)CCC2C(C)C)cc1` (configuration not stated), the T/C by setting is: (endpoint: mean survival time, dose: 100.0 mg/kg/injection, schedule: Q01DX001 (ip), vehicle: saline) 105 % of control; (endpoint: mean survival time, dose: 200.0 mg/kg/injection, schedule: Q01DX001 (ip), vehicle: saline) 100 % of control; (endpoint: mean survival time, dose: 400.0 mg/kg/injection, schedule: Q01DX001 (ip), vehicle: saline) 95 % of control.

As to `COc1cccc(CCC(=O)O)c1OC`, the T/C (endpoint: mean survival time, dose: 25.0 mg/kg/injection, schedule: Q01DX009 (ip), vehicle: Klucel (hydroxypropylcellulose) (HPC)) was 98 % of control; the T/C under setting [1] is 101 % of control; the T/C (endpoint: mean survival time, dose: 100.0 mg/kg/injection, schedule: Q01DX009 (ip), vehicle: Klucel (hydroxypropylcellulose) (HPC)) was 98 % of control; the T/C under setting [2] was 87 % of control; the T/C (endpoint: mean survival time, dose: 400.0 mg/kg/injection, schedule: Q01DX009 (ip), vehicle: Klucel (hydroxypropylcellulose) (HPC)) was 88 % of control.

In the case of `N=C(N)c1ccc(/C=C/c2ccc(C(=N)N)cc2O)cc1`, the T/C reads like this: (endpoint: mean survival time, dose: 3.12 mg/kg/injection, schedule: Q01DX009 (ip), vehicle: water) 91 % of control; (endpoint: mean survival time, dose: 6.25 mg/kg/injection, schedule: Q01DX009 (ip), vehicle: water) 97 % of control; (endpoint: mean survival time, dose: 12.5 mg/kg/injection, schedule: Q01DX009 (ip), vehicle: water) 103 % of control; (endpoint: mean survival time, dose: 25.0 mg/kg/injection, schedule: Q01DX009 (ip), vehicle: water) 105 % of control; (endpoint: mean survival time, dose: 50.0 mg/kg/injection, schedule: Q01DX009 (ip), vehicle: water) 111 % of control.

As for `CCOC(=O)Nc1cc(NCC(O)CN(C)c2ccccc2)c([N+](=O)[O-])c(NC(=O)OCC)n1` (configuration not stated), the T/C by setting is: (endpoint: mean survival time, dose: 100.0 mg/kg/injection, schedule: Q01DX001 (ip), vehicle: carboxymethylcellulose (CMC)) 96 % of control; (endpoint: mean survival time, dose: 200.0 mg/kg/injection, schedule: Q01DX001 (ip), vehicle: carboxymethylcellulose (CMC)) 91 % of control; (endpoint: mean survival time, dose: 400.0 mg/kg/injection, schedule: Q01DX001 (ip), vehicle: carboxymethylcellulose (CMC)) 87 % of control.

On to `O=C1c2ccccc2C(c2ccccc2)(c2ccccc2)N1c1ccccc1`, for which the T/C under setting [3] was 107 % of control, the T/C under setting [4] was 104 % of control and the T/C under setting [5] is 107 % of control.

For `CCCCCCCCCCCC(=O)[O][Sn]([CH2]CCC)([CH2]CCC)[O]C(=O)CCCCCCCCCCC`, the T/C by setting is: (endpoint: mean survival time, dose: 3.0 mg/kg/injection, schedule: Q04DX003 (ip), vehicle: saline with Tween-80) 100 % of control; (endpoint: mean survival time, dose: 6.0 mg/kg/injection, schedule: Q04DX003 (ip), vehicle: saline with Tween-80) 103 % of control; (endpoint: mean survival time, dose: 12.0 mg/kg/injection, schedule: Q04DX003 (ip), vehicle: saline with Tween-80) 103 % of control.

On to `CCOC(OCC)c1ccccc1` (tested in a mixture with another compound), for which the T/C was 97 % of control under setting [3], 97 % of control under setting [4] and 97 % of control under setting [5].

On to `CCOC(OCC)c1cc[n+](CCc2ccc(OC)c(OC)c2)cc1`, for which, for the setting “endpoint: mean survival time, dose: 100.0 mg/kg/injection, schedule: Q04DX003 (ip), vehicle: saline”, the T/C was 96 % of control.

As to `CCCCNC1=CC(=O)c2ccccc2C1=O`, the T/C by setting is: under setting [6], 103 % of control; under setting [7], 95 % of control; under setting [8], 92 % of control.

For `O=C(O)CC(=O)O.[NH-]CC(O)CN(Cc1ccccc1)CC(O)CN.[Pt+2]` (configuration not stated), the T/C runs as follows: (endpoint: median survival time, dose: 2.5 mg/kg/injection, schedule: Q04DX003 (ip), vehicle: water) 102 % of control; (endpoint: median survival time, dose: 5.0 mg/kg/injection, schedule: Q04DX003 (ip), vehicle: water) 101 % of control; (endpoint: median survival time, dose: 10.0 mg/kg/injection, schedule: Q04DX003 (ip), vehicle: water) 108 % of control; (endpoint: median survival time, dose: 12.5 mg/kg/injection, schedule: Q04DX003 (ip), vehicle: water) 104 % of control; (endpoint: median survival time, dose: 20.0 mg/kg/injection, schedule: Q04DX003 (ip), vehicle: water) 111 % of control; (endpoint: median survival time, dose: 25.0 mg/kg/injection, schedule: Q04DX003 (ip), vehicle: water) 102 % of control. Moreover, the T/C (endpoint: median survival time, dose: 50.0 mg/kg/injection, schedule: Q04DX003 (ip), vehicle: water) was 104 % of control and the T/C (endpoint: median survival time, dose: 100.0 mg/kg/injection, schedule: Q04DX003 (ip), vehicle: water) is 108 % of control.

On to `O=[N+]([O-])c1ccc(CCCl)c(CCl)c1`, for which the T/C by setting is: under setting [3], 98 % of control; under setting [4], 86 % of control.

Consider `Cc1cc(NC(=O)Nc2cc(Cl)ccc2C)no1`, for which the T/C by setting is: under setting [1], 98 % of control; under setting [2], 91 % of control.

As for `NCCN.[Ni+2].[O-]c1ccccc1[O-].[O-]c1ccccc1[O-]`, the T/C was 96 % of control (endpoint: mean survival time, dose: 0.78 mg/kg/injection, schedule: Q01DX009 (ip), vehicle: other); 93 % of control (endpoint: mean survival time, dose: 1.56 mg/kg/injection, schedule: Q01DX009 (ip), vehicle: other); 108 % of control (endpoint: mean survival time, dose: 3.13 mg/kg/injection, schedule: Q01DX009 (ip), vehicle: other); 112 % of control (endpoint: mean survival time, dose: 6.25 mg/kg/injection, schedule: Q01DX009 (ip), vehicle: other); 98 % of control (endpoint: mean survival time, dose: 12.5 mg/kg/injection, schedule: Q01DX009 (ip), vehicle: other).

As to `O=C(O)c1nccc2c([N+](=O)[O-])cccc12`, the T/C reads like this: (endpoint: mean survival time, dose: 100.0 mg/kg/injection, schedule: Q01DX009 (ip), vehicle: acetone) 95 % of control; (endpoint: mean survival time, dose: 200.0 mg/kg/injection, schedule: Q01DX009 (ip), vehicle: acetone) 95 % of control; (endpoint: mean survival time, dose: 400.0 mg/kg/injection, schedule: Q01DX009 (ip), vehicle: acetone) 98 % of control.

For `O=C1/C(=C/c2ccccc2)CCC/C1=C\c1ccccc1`, the T/C (endpoint: mean survival time, dose: 25.0 mg/kg/injection, schedule: Q01DX009 (ip), vehicle: saline with Tween-80) was 94 % of control; the T/C (endpoint: mean survival time, dose: 50.0 mg/kg/injection, schedule: Q01DX009 (ip), vehicle: saline with Tween-80) was 94 % of control; the T/C (endpoint: mean survival time, dose: 100.0 mg/kg/injection, schedule: Q01DX009 (ip), vehicle: saline with Tween-80) is 89 % of control.

Consider `Nc1ccccc1SC1CC(=O)N(c2ccccc2Cl)C1=O` (configuration not stated), for which the T/C under setting [3] was 93 % of control, the T/C under setting [4] was 89 % of control and the T/C under setting [5] is 89 % of control.

On to `COc1nc(NC2OCC(O)C(O)C2O)cc(=O)n1C` (configuration not stated), for which the T/C (endpoint: median survival time, dose: 12.5 mg/kg/injection, schedule: Q01DX005 (ip), vehicle: saline) is 102 % of control; the T/C (endpoint: median survival time, dose: 25.0 mg/kg/injection, schedule: Q01DX005 (ip), vehicle: saline) is 101 % of control; the T/C (endpoint: median survival time, dose: 50.0 mg/kg/injection, schedule: Q01DX005 (ip), vehicle: saline) is 100 % of control; the T/C (endpoint: median survival time, dose: 100.0 mg/kg/injection, schedule: Q01DX005 (ip), vehicle: saline) is 105 % of control; the T/C (endpoint: median survival time, dose: 200.0 mg/kg/injection, schedule: Q01DX005 (ip), vehicle: saline) is 98 % of control.

For `CCCCCCCCCCCCCCCCC1CCC2CCCCC12` (configuration not stated), the T/C under setting [6] was 104 % of control, the T/C under setting [7] was 107 % of control and the T/C under setting [8] is 97 % of control.

Regarding `c1ccc(N/N=C(/CC/C(=N\Nc2ccccc2)c2ccccc2)c2ccccc2)cc1`, the T/C is, setting by setting: under setting [6], 96 % of control; under setting [7], 96 % of control; under setting [8], 93 % of control.

With `CCC[CH2][Sn]([CH2]CCC)([CH2]CCC)[CH2]CC(=O)OC`, the T/C runs as follows: under setting [3], 101 % of control; under setting [4], 95 % of control.

Regarding `O=C(O)C(O)C(O)C(=O)O.[NH-]C1CCCCCC1[NH-].[Pt+2]` (configuration not stated), the T/C is, setting by setting: (endpoint: mean survival time, dose: 2.5 mg/kg/injection, schedule: Q04DX003 (ip), vehicle: dextrose) 123 % of control; (endpoint: mean survival time, dose: 5.0 mg/kg/injection, schedule: Q04DX003 (ip), vehicle: dextrose) 153 % of control; (endpoint: mean survival time, dose: 20.0 mg/kg/injection, schedule: Q04DX003 (ip), vehicle: dextrose) 152 % of control and 273 % of control.

`Clc1cccc(-c2cc(-c3ccccc3)[nH]n2)c1`: the T/C is 95 % of control (endpoint: mean survival time, dose: 100.0 mg/kg/injection, schedule: Q01DX001 (ip), vehicle: saline sonified); 97 % of control (endpoint: mean survival time, dose: 200.0 mg/kg/injection, schedule: Q01DX001 (ip), vehicle: saline sonified); 97 % of control (endpoint: mean survival time, dose: 400.0 mg/kg/injection, schedule: Q01DX001 (ip), vehicle: saline sonified).

With `O=NN(CS(=O)(=O)O)c1ccccc1`, the T/C is 101 % of control (endpoint: mean survival time, dose: 50.0 mg/kg/injection, schedule: Q01DX009 (ip), vehicle: saline); 107 % of control (endpoint: mean survival time, dose: 100.0 mg/kg/injection, schedule: Q01DX009 (ip), vehicle: saline); 95 % of control (endpoint: mean survival time, dose: 200.0 mg/kg/injection, schedule: Q01DX009 (ip), vehicle: saline).
